From paper PMC5856786, “A DHODH inhibitor increases p53 synthesis and enhances tumor cell killing by p53 degradation blockage” (Nature Communications, 2018)

Experiments:
human mdm2 (hdm2) = molecular target: T1, human mdm2 (hdm2) (Homo sapiens, UniProt Q00987); assay: hdm2 binding (CETSA in ARN8 extracts; ELISA with IP3 peptide); conditions: CETSA at 100 μM
T1 construct: ARN8 soluble cell extracts were prepared for the cellular thermal shift assay (CETSA); endogenous in cells; host or cells: ARN8 human melanoma cells (soluble extract)
T1 sequence (Q00987 whole entry): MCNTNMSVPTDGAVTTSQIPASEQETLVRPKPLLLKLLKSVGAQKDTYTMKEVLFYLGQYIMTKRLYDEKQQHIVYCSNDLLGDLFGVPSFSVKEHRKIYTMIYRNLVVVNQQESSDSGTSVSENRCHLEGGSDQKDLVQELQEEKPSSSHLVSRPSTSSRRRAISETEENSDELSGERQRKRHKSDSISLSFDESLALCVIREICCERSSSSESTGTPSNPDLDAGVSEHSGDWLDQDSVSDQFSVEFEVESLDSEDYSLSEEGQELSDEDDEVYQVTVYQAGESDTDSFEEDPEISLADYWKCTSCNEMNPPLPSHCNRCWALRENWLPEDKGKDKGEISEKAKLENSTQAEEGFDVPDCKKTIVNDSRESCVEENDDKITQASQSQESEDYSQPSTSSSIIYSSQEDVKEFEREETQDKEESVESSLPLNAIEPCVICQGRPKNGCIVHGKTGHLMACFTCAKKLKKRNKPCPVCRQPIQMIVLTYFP
Protocol: (§1) Levels of gapdh were used to monitor protein loading. e ARN8 or HNDF cells were treated with the indicated compound concentrations for 72 h and subjected to MTT assays. […] Incorporation of ^35S in the p53 immunoprecipitate was determined by autoradiography. The experiment is shown in duplicate
corresponds to residues 17−26 of wild-type p53) was determined by ELISA (See
supplementary information9). The percentage hdm2/hdmx bound to IP3 relative to the vehicle
upon which cycloheximide (CHX) (10 µg mL-1) was added for the indicated periods of time. […]

[1] = tested on: DNA damage response markers in ARN8 cells; assay: Western blotting of DNA damage response markers; assay type: cell-based, human
Protocol: Protein extracts were prepared in 1× LDS sample buffer (Invitrogen) with 100 mM DTT and separated and transferred using the Invitrogen western blotting system except in Supplementary Fig. 1c where the BioRad western blotting system was used. HRP-conjugated secondary antibodies were obtained from Dako (#P016102 and #P0211702) or Santa Cruz (#SC-2020). Immunofluorescence was performed by fixing cells in 4% paraformaldehyde freshly made in PBS for 10 min at 37 °C. Following fixation, cells were permeabilized in 0.15% Triton X-100 for 1–2 min at 37 °C followed by staining with the indicated antibodies. Images were taken using Olympus IX-71 microscope controlled by DeltaVision SoftWoRx. […]
Protein levels were analyzed by western blotting and relative p53 levels quantified using […]
for 1 h prior to the addition of hydroxyurea (HU) or vehicle control for a further 3 h and analyzed by western blotting. gapdh was used as loading control. d) ARN8 cells were treated […]
(Sigma, #N9162) for a further 2 h. Samples were lysed in 2 × LDS buffer (Invitrogen) and levels of P-ATM and ATM determined. α-tubulin was detected for loading control. e) ARN8 […]
of NCS for a further 2 h. Samples were lysed as in d) and levels of P-Ser15 p53 and γ-H2AX were determined. gapdh was used as loading control. f−g) ARN8 cells were treated with […]
(Ser 345) and chk1 were detected. […]

[2] = tested on: p53 and p53-induced proteins in ARN8 cells; assay: Western blotting of p53, hdm2 and p21 levels; assay type: cell-based, human; conditions: ARN8 melanoma cells
Protocol: as §1, with “Levels of p53, as well as downstream targets hdm2 (human mdm2) and p21 were determined. Levels” for “Levels”
Protein extracts were prepared in 1× LDS sample buffer (Invitrogen) with 100 mM DTT and separated and transferred using the Invitrogen western blotting system except in Supplementary Fig. 1c where the BioRad western blotting system was used. HRP-conjugated secondary antibodies were obtained from Dako (#P016102 and #P0211702) or Santa Cruz (#SC-2020). Immunofluorescence was performed by fixing cells in 4% paraformaldehyde freshly made in PBS for 10 min at 37 °C. Following fixation, cells were permeabilized in 0.15% Triton X-100 for 1–2 min at 37 °C followed by staining with the indicated antibodies. Images were taken using Olympus IX-71 microscope controlled by DeltaVision SoftWoRx. Image stacks were deconvolved, quick-projected and saved as tiff images to be processed using Adobe Photoshop. Antibodies to specific antigens are listed in Supplementary Table 8. All original films for blots in Fig. 1 are shown in Supplementary Figs. 9–12.

[3] = tested on: cyclin-dependent kinases (CDKs); assay: 33PanQinase radiometric kinase assay, panel of 16 CDKs (Supplementary Table 1); assay type: biochemical
Excerpt: Supplementary Table 1. In vitro inhibition (% remaining activity) of cyclin-dependent
ProQinase GmbH (Freiburg, Germany) using a radiometric protein kinase assay
(33PanQinase® Activity Assay).
(1 picture or pasted object on this page, not shown here)

MV411 cells = assay: PI flow cytometry, sub-G1 cells, MV411; assay type: cell-based
Protocol: Cell cycle distribution analysis was performed on a Becton Dickinson FACScan flow cytometer or FACSCalibur (BD Biosciences) following staining with propidium iodide (PI) or dual labeling with BrdU and PI[36]. These assays were analyzed using CellQuest Pro (BD Biosciences).

[4] = tested on: p53 levels in S-phase U2OS cells; assay: p53-FITC/DNA content flow cytometry; assay type: cell-based; conditions: HZ05 1 μM, 72 h
Protocol: The upper left panel is a representative dot plot showing the gating strategy for cells expressing high p53 levels (blue: […] DMSO treated). […] A representative histogram of the fluorescence intensity of FITC-p53 in S-phase cells is shown in the lower right panel. Bar graphs show the average of three independent experiments. […] After an additional 48 h, Annexin V and PI staining was analyzed by flow cytometry. […] Inhibition of p53 degradation in the form of an mdm2 antagonist leads to death of cells in S-phase For the detection of p53, cells were treated as indicated and fixed using Fix/Perm buffer solution (eBiosciences). […] Cells were resuspended in FACS buffer (2 mM EDTA, 0.5% BSA) containing 2 μg mL^−1 FxCycle Violet (Thermo Scientific). Stained cells were acquired on LSRII (BD Biosciences) and analyzed using FlowJo software V10.2.

recombinant human DHODH = recombinant human DHODH (Homo sapiens, UniProt Q02127); assay: Kinetic DHODH enzyme assay (3,4-dimethoxy-5-methyl-p-benzoquinone, DCIP); assay type: biochemical; parameters: made in house
Chain of recombinant human DHODH (Q02127 29-395 limits assumed): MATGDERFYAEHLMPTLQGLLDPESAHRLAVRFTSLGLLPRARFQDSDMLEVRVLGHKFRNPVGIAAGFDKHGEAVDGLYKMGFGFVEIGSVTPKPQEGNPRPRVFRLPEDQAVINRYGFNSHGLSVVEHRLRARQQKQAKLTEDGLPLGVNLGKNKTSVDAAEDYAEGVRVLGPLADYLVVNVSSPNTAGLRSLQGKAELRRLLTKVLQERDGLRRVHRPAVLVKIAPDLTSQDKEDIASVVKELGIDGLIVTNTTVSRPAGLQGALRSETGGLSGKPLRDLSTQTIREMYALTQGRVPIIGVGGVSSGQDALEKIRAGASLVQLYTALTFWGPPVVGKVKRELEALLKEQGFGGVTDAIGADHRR
Protocol: In Fig. 5a enzyme assays were optimized and performed with 6 nM recombinant human DHODH prepared as described. The reaction mixture for these kinetic assays consisted of 1 mM DL-dihydroorotic acid, 100 µM 3,4-dimethoxy-5-methyl-p-benzoquinone (#D9150, Sigma-Aldrich), and 100 µM DCIP in enzyme buffer. A stock solution of 20 mM DCIP was prepared in enzyme buffer and filtered through filter paper (20–25 μm pore size) just before use. Loss in absorbance by DCIP was measured at 595 nm at RT in a stepped time course (8 × 2 min, 8 × 3 min, 6 × 5 min). […] Therefore, for each concentration of inhibitor tested, a value for DHODH’s Vmax was estimated by linear regression within this time frame.

binding to human mdm2 (hdm2) (human mdm2 (hdm2)) | inhibition of cyclin-dependent kinases [3] | IC50 (recombinant human DHODH; Fig. 5a, average of three independent repeats ± SD) [nM] | concentration inhibiting DHODH enzymatic activity (recombinant human DHODH; authors' response in peer review file) | Compound | induction of DNA damage response markers [1] | levels of p53 and p53-induced proteins [2] | sub-G1 cells (MV411 cells; HZ05 1 μM 72 h + 48 h, 2 μM nutlin-3a last 48 h) [%] | sub-G1 cells (MV411 cells; HZ05 1 μM 72 h + 48 h, DMSO last 48 h) [%] | sub-G1 cells (MV411 cells; HZ05 1 μM, 72 h treatment) [%] | sub-G1 cells (MV411 cells; HZ05 2.5 μM, 72 h treatment) [%] | p53 levels in S-phase cells [4]
does not bind | did not detect inhibition |  |  | O=C(NC1CCCc2c1cnn2-c1ccccc1F)c1ccccn1 (centres unmarked) [HZ00] | did not observe any induction | increased the levels of p53 and p53-induced proteins |  |  |  |  | 
 |  | 32 ± 2 | below 40 nM | O=C(NC1CCCc2c1cnn2-c1ccccc1F)c1onc2c1CCCC2 (centres unmarked) [HZ05] |  |  | 65.4 | 30.2 | 5.5 | 6.2 | higher levels of p53 than vehicle treated controls
